Results from patent publication US6462086B1, “Non-malignant disease treatment with Ras antagonists” (Ramot University Authority for Applied Research and …, priority 1999, dated 2002).
Entries after “also recorded” stand apart in the source; their conditions may differ.

Experiments:
Ras = Ras in membranes (P100) and cytosol (S100) of cultured spleen lymphocytes (Western immunoblot); format: cell-based, mouse; conditions: for amount of insoluble (P100) Ras: 24 h, relative to FTS 0 μM = 100
Method: Spleen lymphocytes, obtained from six mice as described above, were pooled and plated in 10 cm dishes containing RPMI/5% FCS at a density of 2.3×10^7 cells per plate. […] Twenty-four hours later the cells were collected (pools of 2 plates for each treatment) and washed in PBS. The cells were then homogenized in homogenization buffer containing protease inhibitors. Ras was determined in total cell membranes (P100) and cytosol (S100) obtained by centrifugation ([…], 30 min, 4° C.). Briefly, 25 μg of total cellular proteins were separated by 12.5% sodium dodecylsulfate polyacrylamide gel electrophoresis (SDS-PAGE) and blotted onto nitrocellulose membranes. Immunoblotting with pan-Ras, enhanced chemiluminescense assays (ECL) and densitometric analysis were then performed as detailed previously (14).

MRL/lpr mice [1] = assay: Serum autoantibodies by ELISA in MRL/lpr and MRL/++ mice; format: in vivo, mouse; conditions: 16 weeks of age
Method: FTS was synthesized as previously described (13). FTS was stored in chloroform, which was evaporated under a stream of nitrogen immediately before use. The powder was dissolved in absolute ethanol and diluted to the desired concentration in sterile saline made basic with NaOH. 200 μl of carrier solution containing 100 μg of FTS (5 mg/kg) were injected intraperitoneally (i.p.) into each mouse. Control solution was prepared at the same time starting with a chloroform solution.
Mice were treated once a day, 3-5 times a week starting from 6 or 10 weeks of age until 18 weeks of age.
The mice were bled at 16 weeks of age by retro-orbital sinus puncture and the sera were separated by centrifugation and stored at −70° C. until assayed. The sera were tested by ELISA for the presence of different autoantibodies as previously described (15, 16). This included serum dependent (β2-GPI dependent) and independent antibodies to cardiolipin (aCL) and antibodies to single and double stranded DNA (anti-ssDNA, anti-dsDNA).

MRL/lpr mice [2] = assay: Proteinuria (dipstick) in MRL mice; format: in vivo, mouse; conditions: MRL/lpr mice treated 5 days a week from 6 weeks of age
Method: The presence of proteinuria was measured on freshly expressed urine samples at weekly intervals. The protein content was evaluated semiquantitatively using a commercial dipstick method (Macherey-Nagel, Germany). This colorimetric assay is specific for albumin, with approximate protein concentration as follows: 0, 30, 100 and 500 mg/dl (mg%).

MRL/lpr mice [3] = assay: Grip strength test (hang time) in MRL mice; format: in vivo, mouse
Method: The four groups of mice were examined weekly using the grip strength test. Muscle strength was measured by the number of seconds the mouse was able to hang suspended on a stationary bar. A neurologically normal mouse is able to remain suspended (hang time) for 30 seconds or longer (17).

[4] = system: Balb-C mice immunized with ApoH; assay: Autoantibodies in Balb-C mice immunized with ApoH (induced APS model); format: in vivo, mouse; conditions: 9 per group
Method: Similar antibody assays were performed with the sera of Balb-C mice (9 per group) immunized with ApoH 10 μg in complete Freund's adjuvant with boosts given 2 and 6 weeks later in incomplete adjuvant.

human HSC [5] = assay: PDGF-stimulated DNA synthesis ([3H]TdR) in human hepatic stellate cells; format: cell-based; conditions: PDGF-BB 10 ng/ml; 24 h FTS
Method: (§1) Human HSCs were isolated from wedge sections of normal human liver unsuitable for transplantation as previously reported (6, 7). Briefly, after a combined digestion with collagenase/pronase, HSCs were separated from other liver nonparenchymal cells by ultracentrifugation over gradients of stractan (Cellsep™ isotonic solution, Larex Inc., St. Paul, Minn.). Extensive characterization was performed as described in (7). Cells were cultured on plastic culture dishes (Falcon, Becton Dickinson, Lincoln Park, N.J.) in Iscove's modified Dulbecco's medium supplemented with 0.6 U/ml insulin, 2.0 mmol/L glutamine, 0.1 mmol/L nonessential amino acids, 1.0 mmol/L sodium pyruvate, antibiotic antifungal solution (all provided by Gibco Laboratories, Grand Island, N.Y.) and 20% fetal bovine serum (Imperial Laboratories, Andover, U.K.). Experiments described in this study were performed on cells between third and fifth serial passages (1:3 split ratio) using three independent cell lines.
DNA synthesis was measured as the amount of [Methyl-^3H]thymidine ([^3 H]TdR) incorporated into trichloroacetic acid-precipitable material. […] At the end of the pulsing period, [^3H]TdR incorporation into cellular DNA was measured as previously reported (8). Cell number was determined in three separate wells from each dish and results were expressed as cpm/10^5 cells.

human HSC [6] = assay: PDGF-induced migration of human hepatic stellate cells (modified Boyden chamber); format: cell-based; conditions: PDGF-BB 10 ng/ml, 24 h FTS, read-out: FTS concentration inhibiting (50%) the PDGF-stimulated cell migration
Method: as §1
Cell migration was carried out as previously described (9, 10). […] After fixing in 96% methanol and staining with Harris' hematoxylin solution, cells that migrated to the underside of the filters were quantitated as the mean number of cells in 10 high-power fields (HPF). […] Possible cytotoxic effects were monitored by the trypan blue exclusion test.

With `CC(C)=CCC/C(C)=C/CC/C(C)=C/CSc1ccccc1C(=O)O` [FTS, farnesyl thiosalicylic acid] the “amount of insoluble (P100) Ras” value (Ras; FTS 12.5 μM) was 84±9.8%, the “amount of insoluble (P100) Ras” value (Ras; FTS 50μM as printed) was 52±16% and the “levels of soluble (S100) Ras” value (Ras; FTS 12.5 and 25 μM) was “no concomitant observable change”. The “levels of anti-dsDNA antibodies” value (MRL/lpr mice [1]) was “did lower the levels; also recorded: significant decrease”, the “levels of anti-ssDNA antibodies” value (MRL/lpr mice [1]) was “did not affect the levels” and the “levels of non-serum dependent aCL antibodies” value (MRL/lpr mice [1]) was “did not affect the levels”. For the same compound, the “levels of β2-GPI dependent aCL antibodies” value (MRL/lpr mice [1]) was “did lower the levels; also recorded: significant decrease”, the proteinuria (MRL/lpr mice [2]) was “very low levels of proteinuria; also recorded: normalized” and the “grip strength (hang time on a horizontal bar)” value (MRL/lpr mice [3]; MRL/++ mice) was “trend for FTS to impair performance”. For the same compound, the “grip strength (hang time on a horizontal bar)” value (MRL/lpr mice [3]; MRL/lpr mice, 12-17 weeks of age) was “significantly impaired in this test from week 14 compared to the FTS-treated group; also recorded: normalized”, the “anti-ApoH, anti-ds DNA and anti-phosphatidyl-ethanolamine levels” value [4] was “significant effect of FTS treatment” and the “FTS concentration affecting PDGF-stimulated 3H-thymidine incorporation into DNA” value (human HSC [5]) was 25 to 50 µM. It also gave an IC50 (human HSC [6]) of 2000 to 2500 nM.
